In article PMC7036018 (ACS chemical biology, 2020):

How the values were obtained:
P. aeruginosa [1] = conditions: cited from earlier work
P. aeruginosa [2] = experiment: PqsE-dependent pyocyanin production; type: cell-based, Pseudomonas aeruginosa; conditions: 100 μM, overnight at 37°C, OD695
P. aeruginosa [3] = experiment: Mass spectrometry of compound levels in cell-free culture fluid and cell lysate; type: cell-based, Pseudomonas aeruginosa; conditions: positive control

Row | Compound | effect on in vivo pyocyanin production levels (P. aeruginosa [1]) | effect on pyocyanin production (P. aeruginosa [2]) | concentration in cell lysate over time (P. aeruginosa [3]) | concentration in cell-free culture fluid over time (P. aeruginosa [3])
1 | O=C(O)c1ccccc1-c1cccnc1 [Compound C1, 2-(pyridin-3’-yl) benzoic acid] | does not affect in vivo pyocyanin production levels |  |  | 
2 | meta-bromo-thiolactone [mBTL] |  | known inhibitor of pyocyanin production | increased | progressively decreased
